In ChEMBL document CHEMBL1136445, “Inhibitory effects on mitochondrial complex I of semisynthetic mono-tetrahydrofuran acetogenin derivatives” (Bioorg Med Chem Lett, 2003):

Key:
[1] = Inhibitory activity against NADH/DH oxidoreductase in beef heart mitochondrial complex I.; design: species or system Bos taurus
[2] = biological target: Mitochondrial complex I; NADH oxidoreductase (Bos taurus) (UniProt P25708+P52505); assay: Inhibitory potency against NADH oxidase with respect to compound 2c; format: protein-complex assay
[3] = organism: Bos taurus; assay: Inhibitory potency against NADH/DH oxidoreductase with respect to rotenone
[4] = biological target: Mitochondrial complex I; NADH oxidoreductase (Bos taurus, UniProt P25708+P52505); assay: Inhibitory activity against NADH oxidase in beef heart mitochondrial complex I.; format: protein-complex assay
Chain of Mitochondrial complex I; NADH oxidoreductase (P25708 21-464 limits assumed, other chains not shown): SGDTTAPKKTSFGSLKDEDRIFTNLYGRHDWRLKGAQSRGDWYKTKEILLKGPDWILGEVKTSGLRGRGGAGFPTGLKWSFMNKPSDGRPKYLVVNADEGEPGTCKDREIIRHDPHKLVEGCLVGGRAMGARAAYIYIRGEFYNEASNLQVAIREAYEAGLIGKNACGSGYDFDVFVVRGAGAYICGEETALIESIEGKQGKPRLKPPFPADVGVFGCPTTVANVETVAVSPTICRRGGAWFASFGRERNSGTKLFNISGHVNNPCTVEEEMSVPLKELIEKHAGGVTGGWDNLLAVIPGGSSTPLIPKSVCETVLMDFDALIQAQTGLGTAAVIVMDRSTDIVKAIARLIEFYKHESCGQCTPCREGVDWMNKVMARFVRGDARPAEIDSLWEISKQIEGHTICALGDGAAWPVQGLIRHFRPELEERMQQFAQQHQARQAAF

With `C=C(C)[C@H]1Cc2c(ccc3c2O[C@@H]2COc4cc(OC)c(OC)cc4[C@@H]2C3=O)O1` [ROTENONE] the IC50 [1] was 28.8 nM, the Relative potency [2] was 7.2 and the Relative potency [3] was 1. It also gave an IC50 [4] of 5.1 nM.
For `CCCCCCCCCCCC[C@H](O)[C@@H]1CC[C@@H]([C@@H](O)CCCC[C@@H](O)CCCCC[C@@H]2CC(C/C(C)=N/O)C(=O)O2)O1` (some centres not stated), the IC50 [1] was 8.7 nM, the Relative potency [2] was 2.7 and the Relative potency [3] was 0.37. The IC50 [4] was 1.9 nM.
`CCCCCCCCCCCC[C@H](O)[C@@H]1CC[C@@H]([C@@H](O)CCCC[C@@H](O)CCCCC[C@@H](O)CC2(O)C(=O)O[C@@H](C)C2O)O1` (some centres not stated) showed an IC50 [1] of 55.2 nM, a Relative potency [2] of 31.1 and a Relative potency [3] of 4.27. The IC50 [4] was 21.8 nM.
`CCCCCCCCCCCC[C@H](O)[C@@H]1CC[C@@H]([C@@H](O)CCCC[C@@H](O)CCCCC[C@@H]2CC(CC(C)O)C(=O)O2)O1` (some centres not stated) gave an IC50 [1] of 51 nM, a Relative potency [2] of 8.2 and a Relative potency [3] of 1.1. For the same compound, the IC50 [4] was 5.8 nM.
With `CCCCCCCCCCCC[C@H](O)[C@@H]1CC[C@@H]([C@@H](O)CCCCC(=O)CCCCC[C@@H]2CC(CC(C)=O)C(=O)O2)O1` (some centres not stated) the IC50 [1] was 1.1 nM, the Relative potency [2] was 1 and the Relative potency [3] was 0.13. For the same compound, the IC50 [4] was 0.7 nM.
`CCCCCCCCCCCC[C@H](O)[C@@H]1CC[C@@H]([C@@H](O)CCCCC(CCCCC[C@@H](O)CC2=C[C@H](C)OC2=O)NCCc2ccc(OC)c(OCc3ccccc3)c2)O1` (some centres not stated) showed an IC50 [1] greater than 1200 nM and an IC50 [4] greater than 150 nM.
Work on `CCCCCCCCCCCC[C@H](O)[C@@H]1CC[C@@H]([C@@H](O)CCCC[C@@H](O)CCCCC[C@@H](O)CC2C[C@H](C)OC2=O)O1` (some centres not stated) yielded an IC50 [1] of 19.9 nM, a Relative potency [2] of 5.1 and a Relative potency [3] of 0.7. For the same compound, the IC50 [4] was 3.6 nM.
`CCCCCCCCCCCC[C@H](O)[C@@H]1CC[C@@H]([C@@H](O)CCCC[C@@H](O)CCCCC[C@@H](O)CC2=C[C@H](C)OC2=O)O1` showed an IC50 [1] of 26.1 nM, a Relative potency [2] of 3.2 and a Relative potency [3] of 0.62. The IC50 [4] was 2.3 nM.
Work on `CCCCCCCCCCCC[C@H](O)[C@@H]1CC[C@@H]([C@@H](O)CCCC/C(CCCCC[C@@H](O)CC2=C[C@H](C)OC2=O)=N\O)O1` yielded an IC50 [1] of 10.3 nM, a Relative potency [2] of 3.8 and a Relative potency [3] of 0.52. It also gave an IC50 [4] of 2.7 nM.
`CCCCCCCCCCCC[C@H](O)[C@@H]1CC[C@@H]([C@@H](O)CCCCC(=O)CCCCC[C@@H](O)CC2=C[C@H](C)OC2=O)O1` showed an IC50 [1] of 3.7 nM, a Relative potency [2] of 1.1 and a Relative potency [3] of 0.15. For the same compound, the IC50 [4] was 0.8 nM.
`CCCCCCCCCCCC[C@H](O)[C@@H]1CC[C@@H]([C@@H](O)CCCC[C@@H](O)CCCCC[C@@H]2CC(CC(C)=O)C(=O)O2)O1` (some centres not stated) showed an IC50 [1] of 14.6 nM, a Relative potency [2] of 4.7 and a Relative potency [3] of 0.64. The IC50 [4] was 3.3 nM.
